What was measured:
[1] = system: Escherichia coli (ATCC 25922), Pseudomonas aeruginosa (ATCC 27853), Staphylococcus aureus (ATCC 25923), and Bacillus subtillis (ATCC 6633); assay: Antimicrobial activity of reuterin, glutaraldehyde as control; format: cell-based
Source text: Antimicrobial activity of reuterin was studied (J Biomed Mater Res 2002;61:360-369) and disclosed in the present invention, wherein glutaraldehyde is used as a control. The microorganisms tested in the study are Escherichia coli (ATCC 25922), Pseudomonas aeruginosa (ATCC 27853), Staphylococcus aureus (ATCC 25923), and Bacillus subtillis (ATCC 6633).

[2] = system: 3T3 fibroblasts (BALB/3T3 C1A31-1-1); assay: Cytotoxicity, light microscopic observation of cultured cells; format: cell-based; details: 24 hours of culture
Experimental: (§1) The cytotoxicity of reuterin was also studied (J Biomed Mater Res 2002;61:360-369) and disclosed in the present invention, wherein glutaraldehyde is again used as a control. The cytotoxicity of the test reagents (glutaraldehyde vs. reuterin) was evaluated in vitro using a mouse-derived established cell line of 3T3 fibroblasts (BALB/3T3 C1A31-1-1). The assay (light microscopic observation and MTT assay) was used to measure the proportion of viable cells following a test reagent-treated culture.
In the assay, 3T3 fibroblasts were seeded in 24-well plates at 5×10^4 cells/well in 1 ml Dulbecco's modified eagle medium (DMEM, Gibco 430-2800EG, Grand Island, N.Y., USA) with 10% fetal calf serum (FCS, Hyclone Laboratories, Logan, Ut., USA). The cell culture was maintained in a humidified incubator at 37° C. with 10% CO2 in air. Cells in log phase of growth were then exposed to a new DMEM medium drugged with varying concentrations of glutaraldehyde or reuterin. After 24 hours of culture, the growth media in the wells were removed and the cells were photographed using light microscopy. Subsequently, the cells were washed with phosphate buffered saline (PBS) twice and surviving cell numbers were then determined indirectly by 3-(4,5-dimethylthiazol-yl)-2,5-diphenyltetrazolium bromide (MTT, Sigma Chemical Co., St. Louis, Mo., USA) dye reduction.

[3] = system: 3T3 fibroblasts (BALB/3T3 C1A31-1-1); assay: Cytotoxicity, MTT assay; format: cell-based, mouse; details: 24 hours of culture
Experimental: as §1
In the assay, 3T3 fibroblasts were seeded in 24-well plates at 5×10^4 cells/well in 1 ml Dulbecco's modified eagle medium (DMEM, Gibco 430-2800EG, Grand Island, N.Y., USA) with 10% fetal calf serum (FCS, Hyclone Laboratories, Logan, Ut., USA). […] Subsequently, the cells were washed with phosphate buffered saline (PBS) twice and surviving cell numbers were then determined indirectly by 3-(4,5-dimethylthiazol-yl)-2,5-diphenyltetrazolium bromide (MTT, Sigma Chemical Co., St. Louis, Mo., USA) dye reduction.
The MTT assay is based on the reduction of MTT, a yellow soluble dye by the mitochondrial succinate dehydrogenase to form an insoluble dark blue formazan product. […] Optical density readings were then performed using a multiwell scanning spectrophotometer (MRX Microplate Reader, Dynatech Laboratories Inc., Chantilly, Va., USA) at a wavelength of 570 nm. […]

SMILES | values for glutaraldehyde relative to those for reuterin ([1]; growth-preventing and lethal concentrations) | state of cultured cells in photomicrographs ([2]; 0.05 ppm) | state of cultured cells in photomicrographs ([2]; 5 ppm) | MTT50 concentration (concentration reducing optical density reading to half that of the control) [3] | concentration that can prevent the growth of the tested microorganisms ([1]; all four tested microorganisms) [ppm] | concentration that resulted in the death of the tested microorganisms ([1]; all four tested microorganisms) [ppm] | sensitivity of tested microorganisms ([1]; gram-positive and gram-negative bacteria) | state of cultured cells in photomicrographs ([2]; 15 ppm)
O=CCCCC=O [glutaraldehyde, reference compound] | 2˜3 times | confluent | all the cells cultured were found dead | approximately 4 ppm |  |  |  | 
O=CCCO [reuterin, β-hydroxypropinoaldehyde] |  |  |  | about 20 ppm | 20 to 35 | 40 to 50 | sensitive | confluent
